Assay results taken from patent US9700044B2, “Symmetrical marinopyrrole derivatives as potential antibiotic agents” (priority 2013, dated 2017).
Values after ≈ are worked out from the molar mass of the structure shown. Like-named read-outs stand apart in the source and are kept apart here.

How the values were obtained:
[1] = system: Oxacillin-resistant Staphylococcus aureus (WHO-25); test: MIC by agar dilution, ORSA (WHO-25); assay type: cell-based
Text: (§1) A panel of multiple resistance Gram-positive and Gram-negative pathogens listed in Tables 1 and 2 was used to evaluate the antimicrobial activity of marinopyrrole derivatives (Chart 1) with vancomycin as a positive control. Except for those marked with WHO, all pathogens were isolated between 2008 and 2010 in hospitals located in Beijing; Guangzhou; Sichuan, Shandong and Jiangsu Province. Determination of the minimum inhibitory concentration (MIC) was done by the guidelines of the Clinical and Laboratory Standards Institute (Clinical and Laboratory Standards Institute, Performance standards for antimicrobial susceptibility testing, seventeenth informational supplement. 2007, 27, M100-S17). The susceptibility tests of a bacterial strain to a marinopyrrole derivative were performed by an agar dilution method. Briefly, each sterile petri dish contained a final volume of 15 mL comprising 1 mL of a marinopyrrole derivative and 14 mL of Mueller-Hinton broth. The concentrations of a marinopyrrole derivative are 128, 64, 32, 16, 8, 4, 2, 1, 0.5, 0.25, 0.125, 0.06, 0.03, 0.015 and 0.008 μg/mL. The petri dish containing the broth with different concentration of antibiotics was first inoculated with 10^5 CFU/mL (Denley A400, United Kingdom) and the culture was then incubated with shaking at 35-37° C. for 18-20 h. The potency of the compound was determined and expressed as minimum inhibitory concentration (MIC) in μg/mL. The MIC was determined as the lowest concentration of antibiotic that inhibited visible bacterial growth.

[2] = system: Methicillin-susceptible Staphylococcus aureus (MSSA); test: MIC by agar dilution, MSSA clinical isolates; assay type: cell-based; details: MSSA
Text: as §1

[3] = system: Highly vancomycin-resistant Enterococci faecalis (VRE); test: MIC by agar dilution, highly resistant VRE; assay type: cell-based
Text: as §1

P. aeruginosa = test: MIC by agar dilution, P. aeruginosa; assay type: cell-based
Text: as §1

K. penumonia = test: MIC by agar dilution, K. penumonia; assay type: cell-based, K. pneumonia
Text: as §1

[4] = system: Moderately vancomycin-resistant Enterococci faecium with the VanA gene (WHO-3); test: MIC by agar dilution, VRE (WHO-3); assay type: cell-based
Text: as §1

[5] = system: Methicillin-resistant Staphylococcus aureus with the mec A gene and PBP2a (WHO-31); test: MIC by agar dilution, MRSA (WHO-31); assay type: cell-based
Text: as §1

E. coli = test: MIC by agar dilution, E. coli; assay type: cell-based
Text: as §1

[6] = system: Methicillin-resistant Staphylococcus epidermidis (MRSE); test: MIC by agar dilution, MRSE clinical isolates; assay type: cell-based; details: MRSE
Text: as §1

[7] = system: Methicillin-resistant Staphylococcus aureus (MRSA); test: MIC by agar dilution, MRSA clinical isolates; assay type: cell-based; details: MRSA
Text: as §1

[8] = Staphylococcus aureus, Table 1, 10 isolates
[9] = Staphylococcus aureus, Table 2, data from 8 isolates
[10] = Staphylococcus aureus, Table 3, data from 8 isolates
[11] = Table 1, ORSA (WHO-25), 1 isolate
[12] = Table 1, VRE (highly vancomycin-resistant E. faecalis), 2 isolates
[13] = Table 1, P. aeruginosa, 4 isolates, value over three Gram-negative pathogens
[14] = Table 1, K. penumonia, 4 isolates, value over three Gram-negative pathogens
[15] = Table 1, VRE (WHO-3), 1 isolate
[16] = Table 1, MRSA (WHO-31), 1 isolate
[17] = Table 1, E. coli, 4 isolates, value over three Gram-negative pathogens

O=C(c1ccccc1O)c1[nH]c(Cl)c(Cl)c1-n1c(C(=O)c2ccccc2O)cc(Cl)c1Cl [Compound 1, marinopyrrole A, reference compound]
MIC ([1]; Staphylococcus aureus, Table 1, ORSA (WHO-25), 1 isolate): 1 mg/L (≈ 1.96 µM)
MIC ([1]; Staphylococcus aureus, Table 3, WHO-25): 1 mg/L (≈ 1.96 µM)
MIC ([1]; Staphylococcus aureus, Table 2, WHO-25): 1 mg/L (≈ 1.96 µM)
MIC [2, 8]: 0.5 to 1 mg/L (≈ 0.98 to 1.96 µM)
MIC [2, 9]: 0.5 mg/L (≈ 0.98 µM)
MIC [2, 10]: 0.5 mg/L (≈ 0.98 µM)
MIC [3]: 16 to 128 mg/L (≈ 31.4 to 251 µM)
MIC (P. aeruginosa; Pseudomonas aeruginosa): > 128 mg/L
MIC (K. penumonia; Klebsiella pneumoniae): > 128 mg/L
MIC ([4]; Enterococcus): 1 mg/L (≈ 1.96 µM)
MIC ([4]; Enterococcus, VRE): 0.5 to 1 mg/L (≈ 0.98 to 1.96 µM)
MIC ([4]; Table 3, WHO-3): 1 mg/L (≈ 1.96 µM)
MIC ([5]; Staphylococcus aureus): 1 mg/L (≈ 1.96 µM)
MIC ([5]; Staphylococcus aureus, MRSA): 1 mg/L (≈ 1.96 µM)
MIC ([5]; Table 3, WHO-31): 1 mg/L (≈ 1.96 µM)
MIC (E. coli; Escherichia coli): > 128 mg/L
MIC ([6]; Staphylococcus epidermidis, Table 1, 3 isolates): 0.06 to 1 mg/L (≈ 0.118 to 1.96 µM)
MIC ([6]; Staphylococcus epidermidis, Table 2, data from 4 isolates): 0.25 mg/L (≈ 0.49 µM)
MIC ([6]; Staphylococcus epidermidis, Table 3, data from 4 isolates): 0.25 mg/L (≈ 0.49 µM)
MIC [7, 8]: 1 mg/L (≈ 1.96 µM)
MIC [7, 9]: 0.5 to 1 mg/L (≈ 0.98 to 1.96 µM)
MIC [7, 10]: 0.5 to 1 mg/L (≈ 0.98 to 1.96 µM)

COc1ccccc1C(=O)c1[nH]c(Cl)c(Cl)c1-n1c(C(=O)c2ccccc2OC)cc(Cl)c1Cl [Compound 1c]
MIC [1, 11]: 8 mg/L (≈ 14.9 µM)
MIC ([2]; Table 1, 10 isolates): 4 to 16 mg/L
MIC [3, 12]: >128 mg/L
MIC (P. aeruginosa; [13]): >128 mg/L
MIC (K. penumonia; [14]): >128 mg/L
MIC [4, 15]: 2 mg/L (≈ 3.72 µM)
MIC [5, 16]: 4 mg/L (≈ 7.43 µM)
MIC (E. coli; [17]): >128 mg/L
MIC ([6]; Table 1, 3 isolates): 2 to 4 mg/L
MIC ([7]; Table 1, 10 isolates): 4 to 16 mg/L

O=C(c1ccccc1)c1[nH]c(Cl)c(Cl)c1-n1c(C(=O)c2ccccc2)cc(Cl)c1Cl [Compound 1d]
MIC [1, 11]: 4 mg/L (≈ 8.37 µM)
MIC ([2]; Table 1, 10 isolates): 2 to 8 mg/L
MIC [3, 12]: >128 mg/L
MIC (P. aeruginosa; [13]): >128 mg/L
MIC (K. penumonia; [14]): >128 mg/L
MIC [4, 15]: 2 mg/L (≈ 4.18 µM)
MIC [5, 16]: 4 mg/L (≈ 8.37 µM)
MIC (E. coli; [17]): >128 mg/L
MIC ([6]; Table 1, 3 isolates): 0.5 to 4 mg/L
MIC ([7]; Table 1, 10 isolates): 4 to 8 mg/L

COc1cccc(C(=O)c2[nH]c(Cl)c(Cl)c2-n2c(C(=O)c3cccc(OC)c3)cc(Cl)c2Cl)c1 [Compound 1e]
MIC [1, 11]: >128 mg/L
MIC ([2]; Table 1, 10 isolates): >128 mg/L
MIC [3, 12]: >128 mg/L
MIC (P. aeruginosa; [13]): >128 mg/L
MIC (K. penumonia; [14]): >128 mg/L
MIC [4, 15]: >128 mg/L
MIC [5, 16]: >128 mg/L
MIC (E. coli; [17]): >128 mg/L
MIC ([6]; Table 1, 3 isolates): >128 mg/L
MIC ([7]; Table 1, 10 isolates): >128 mg/L

COc1ccc(C(=O)c2[nH]c(Cl)c(Cl)c2-n2c(C(=O)c3ccc(OC)cc3)cc(Cl)c2Cl)cc1 [Compound 1f]
MIC [1, 11]: >128 mg/L
MIC ([2]; Table 1, 10 isolates): >128 mg/L
MIC [3, 12]: >128 mg/L
MIC (P. aeruginosa; [13]): >128 mg/L
MIC (K. penumonia; [14]): >128 mg/L
MIC [4, 15]: >128 mg/L
MIC [5, 16]: >128 mg/L
MIC (E. coli; [17]): >128 mg/L
MIC ([6]; Table 1, 3 isolates): >128 mg/L
MIC ([7]; Table 1, 10 isolates): >128 mg/L

O=C(c1ccccc1F)c1[nH]c(Cl)c(Cl)c1-n1c(C(=O)c2ccccc2F)cc(Cl)c1Cl [Compound 1g]
MIC [1, 11]: >128 mg/L
MIC ([2]; Table 1, 10 isolates): >128 mg/L
MIC [3, 12]: >128 mg/L
MIC (P. aeruginosa; [13]): >128 mg/L
MIC (K. penumonia; [14]): >128 mg/L
MIC [4, 15]: >128 mg/L
MIC [5, 16]: >128 mg/L
MIC (E. coli; [17]): >128 mg/L
MIC ([6]; Table 1, 3 isolates): >128 mg/L
MIC ([7]; Table 1, 10 isolates): >128 mg/L

O=C(c1cccc(F)c1)c1[nH]c(Cl)c(Cl)c1-n1c(C(=O)c2cccc(F)c2)cc(Cl)c1Cl [Compound 1h]
MIC [1, 11]: 4 mg/L (≈ 7.78 µM)
MIC ([2]; Table 1, 10 isolates): 4 to 16 mg/L
MIC [3, 12]: >128 mg/L
MIC (P. aeruginosa; [13]): >128 mg/L
MIC (K. penumonia; [14]): >128 mg/L
MIC [4, 15]: 4 mg/L (≈ 7.78 µM)
MIC [5, 16]: 4 mg/L (≈ 7.78 µM)
MIC (E. coli; [17]): >128 mg/L
MIC ([6]; Table 1, 3 isolates): 0.13 to 1 mg/L
MIC ([7]; Table 1, 10 isolates): >64 mg/L

O=C(c1ccc(F)cc1)c1[nH]c(Cl)c(Cl)c1-n1c(C(=O)c2ccc(F)cc2)cc(Cl)c1Cl [Compound 1i]
MIC [1, 11]: 8 mg/L (≈ 15.6 µM)
MIC ([2]; Table 1, 10 isolates): 4 to 16 mg/L
MIC [3, 12]: >128 mg/L
MIC (P. aeruginosa; [13]): >128 mg/L
MIC (K. penumonia; [14]): >128 mg/L
MIC [4, 15]: 4 mg/L (≈ 7.78 µM)
MIC [5, 16]: 4 mg/L (≈ 7.78 µM)
MIC (E. coli; [17]): >128 mg/L
MIC ([6]; Table 1, 3 isolates): 0.25 to 4 mg/L
MIC ([7]; Table 1, 10 isolates): 8 to 16 mg/L

O=C(c1ccccc1C(F)(F)F)c1[nH]c(Cl)c(Cl)c1-n1c(C(=O)c2ccccc2C(F)(F)F)cc(Cl)c1Cl [Compound 1j]
MIC [1, 11]: >128 mg/L
MIC ([2]; Table 1, 10 isolates): >128 mg/L
MIC [3, 12]: >128 mg/L
MIC (P. aeruginosa; [13]): >128 mg/L
MIC (K. penumonia; [14]): >128 mg/L
MIC [4, 15]: >128 mg/L
MIC [5, 16]: >128 mg/L
MIC (E. coli; [17]): >128 mg/L
MIC ([6]; Table 1, 3 isolates): >128 mg/L
MIC ([7]; Table 1, 10 isolates): >128 mg/L

O=C(c1ccc(C(F)(F)F)cc1)c1[nH]c(Cl)c(Cl)c1-n1c(C(=O)c2ccc(C(F)(F)F)cc2)cc(Cl)c1Cl [Compound 1k]
MIC [1, 11]: 8 mg/L (≈ 13 µM)
MIC ([2]; Table 1, 10 isolates): 8 to 32 mg/L
MIC [3, 12]: >128 mg/L
MIC (P. aeruginosa; [13]): >128 mg/L
MIC (K. penumonia; [14]): >128 mg/L
MIC [4, 15]: 8 mg/L (≈ 13 µM)
MIC [5, 16]: 8 mg/L (≈ 13 µM)
MIC (E. coli; [17]): >128 mg/L
MIC ([6]; Table 1, 3 isolates): 0.03 to 4 mg/L
MIC ([7]; Table 1, 10 isolates): 32 to 64 mg/L

COc1cc(O)c(C(=O)c2[nH]c(Cl)c(Cl)c2-n2c(C(=O)c3cc(Cl)c(OC)cc3O)cc(Cl)c2Cl)cc1Cl [Compound 1m]
MIC [1, 11]: 4 mg/L (≈ 6.26 µM)
MIC ([2]; Table 1, 10 isolates): 2 to 8 mg/L
MIC [3, 12]: >128 mg/L
MIC (P. aeruginosa; [13]): >128 mg/L
MIC (K. penumonia; [14]): >128 mg/L
MIC [4, 15]: 0.5 mg/L (≈ 0.782 µM)
MIC [5, 16]: 4 mg/L (≈ 6.26 µM)
MIC (E. coli; [17]): >128 mg/L
MIC ([6]; Table 1, 3 isolates): 0.25 to 4 mg/L
MIC ([7]; Table 1, 10 isolates): 2 to 8 mg/L

COc1cc(OC)c(C(=O)c2[nH]c(Cl)c(Cl)c2-n2c(C(=O)c3cc(Cl)c(OC)cc3OC)cc(Cl)c2Cl)cc1Cl [Compound 1n]
MIC [1, 11]: >64 mg/L
MIC ([2]; Table 1, 10 isolates): >64 mg/L
MIC [3, 12]: >64 mg/L
MIC (P. aeruginosa; [13]): >64 mg/L
MIC (K. penumonia; [14]): >64 mg/L
MIC [4, 15]: >64 mg/L
MIC [5, 16]: >64 mg/L
MIC (E. coli; [17]): >64 mg/L
MIC ([6]; Table 1, 3 isolates): >64 mg/L
MIC ([7]; Table 1, 10 isolates): >64 mg/L
